The test system of data set [1] is male rats. Briefly: Plasma metabolite profiling (GC-MS, LC-MS, SPE-LC-MS) in male rats dosed once daily over 28 days (OECD 407). As to conditions: male rats, plasma, high dose, day 7. The format is in vivo, rat. Put shortly:
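Metabolites were measured by GC-MS (derivatised) and reversed-phase LC-MS, with steroids by online SPE-LC-MS, in plasma drawn from fasted rats on days 7, 14 and 28 of once-daily dosing (5/sex/group). Values are ratios versus sex-matched untreated controls, normalized to pool samples, with Welch-test p-values.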

Data set [2] has as its system female rats. In words: Plasma metabolite profiling (GC-MS, LC-MS, SPE-LC-MS) in female rats dosed once daily over 28 days (OECD 407). The format is in vivo, rat. Set-up: key to 5-O-Methylsphingosine (d18:1) / Isopalmitic acid (C16:0) / Valine / Alanine / Ketoleucine / Serine / Lactate / Arginine: ratio of treated group mean to untreated control mean. As to conditions: for Alanine / Arginine / Ketoleucine / Lactate / Proline / Serine / Valine: Table 17b. On the procedure:
Each dose group in the studies consisted of five rats per sex. Additional groups of each 5 male and female animals served as controls. […] All animals of the animal population were kept under the same constant temperature (20-24±3° C.) and the same constant humidity (30-70%). The animals of the animal population were fed ad libitum. The food to be used was essentially free of chemical or microbial contaminants. Drinking water was also offered ad libitum. Accordingly, the water was free of chemical and microbial contaminants as laid down in the European Drinking Water Directive 98/83/EG. The illumination period was 12 hours light followed by 12 hours darkness (12 hours light, from 6:00 to 18:00, and 12 hours darkness, from 18:00 to 6:00). […] The test substances (compounds) in the Tables 1 to 17 below were dosed and administered as described in the Table 18.
In the morning of day 7, 14, and 28, blood was taken from the retroorbital venous plexus from fasted anaesthetized animals. From each animal, 1 ml of blood was collected with EDTA as anticoagulant. The samples were centrifuged for generation of plasma. All plasma samples were covered with a N2 atmosphere and then stored at −80° C. until analysis.
For mass spectrometry-based metabolite profiling analyses plasma samples were extracted and a polar and a non-polar (lipid) fraction was obtained. For GC-MS analysis, the non-polar fraction was treated with methanol under acidic conditions to yield the fatty acid methyl esters. Both fractions were further derivatised with O-methyl-hydroxyamine hydrochloride and pyridine to convert Oxogroups to O-methyloximes and subsequently with a silylating agent before analysis. In LC-MS analysis, both fractions were reconstituted in appropriate solvent mixtures. HPLC was performed by gradient elution on reversed phase separation columns. Mass spectrometric detection which allows target and high sensitivity MRM (Multiple Reaction Monitoring) profiling in parallel to a full screen analysis was applied as described in WO2003073464.
Steroids and their metabolites were measured by online SPE-LC-MS (Solid phase extraction-LC-MS).
Following comprehensive analytical validation steps, the data for each analyte were normalized against data from pool samples. These samples were run in parallel through the whole process to account for process variability. The significance of treatment group values specific for sex, treatmentduration and metabolite was determined by comparing means of the treated groups to the means of the respective untreated control groups using WELCH-test and quantified with treatment ratios versus control and p-values.
The identification of the most important biomarkers per toxicity pattern was done by a ranking of the analytes in the tables below. Therefore the metabolic changes in reference treatments of a given pattern (shown in the table) were compared with changes of the same metabolite in other unrelated treatments. […] The maximum absolute value of the respective TVALUE was taken to indicate the most important metabolite for the pattern.

Counter-ions that a name gives are not always drawn. Marks after values point to notes of the source that are not given here.

Consider `C#C[C@]1(OC(C)=O)CC[C@H]2[C@@H]3CCC4=CC(=O)CC[C@@H]4[C@H]3CC[C@@]21C` [Norethindrone acetate], for which, in data set [1], the “Alanine, ratio versus control” value was 0.88 *; the “Androstenedione, ratio versus control” value is given as 0.42 *; the “Cholesterol, ratio versus control” value is listed as 0.28 *; the “Glycine, ratio versus control” value is 0.86 *. Moreover, in data set [1], the “Heptadecanoic acid (C17:0), ratio versus control” value is reported as 0.56 *; the “Testosterone, ratio versus control” value is reported as 0.59 *; the “Threonine, ratio versus control” value is listed as 0.88 *; the “Uric acid, ratio versus control” value is listed as 0.7 *. The “alpha-Tocopherol, ratio versus control” value in data set [1] is 0.32 *. In data set [2] (f7, high dose, Table 14a), the Cholesterol is given as 0.17 *; the “Choline plasmalogen No 02” value is reported as 0.3 *; the “Lignoceric acid (C24:0)” value was 0.27^; the “Sphingomyelin (d18:1, C16:0)” value is 0.12 *. For the same compound, in data set [2] (f7, high dose, Table 14a), the “Sphingomyelin (d18:2, C16:0)” value is 0.19 * and the “erythro-Sphingosine (d18:1)” value was 0.03 *.

For `CN(CCOc1ccc(CC2SC(=O)NC2=O)cc1)c1ccccn1` (stereo not drawn) [Rosiglitazone maleate], the “Isopalmitic acid (C16:0)” value in data set [2] (f7, female rats, high dose, Table 17a) is reported as 1.46 *. Also, in data set [2] (f7, female rats, high dose), the Alanine stood at 0.83, the Arginine is recorded as 0.85, the Ketoleucine is recorded as 0.72 and the Lactate is reported as 0.56. For the same compound, in data set [2] (f7, female rats, high dose), the Proline is recorded as 0.91, the Serine was found to be 1 and the Valine is recorded as 0.92. Moreover, in data set [2] (f14, female rats, high dose), the Alanine was 0.81, the Arginine is reported as 0.73, the Ketoleucine came to 0.71 and the Lactate was 1.24. In data set [2] (f14, female rats, high dose), the Proline is 0.81, the Serine worked out at 0.91 and the Valine was 0.72. The “Isopalmitic acid (C16:0)” value in data set [2] (f28, female rats, high dose, Table 17a) was 1.52 *. In addition, in data set [2] (f28, female rats, high dose), the Alanine came out at 0.92, the Arginine was 0.93, the Ketoleucine came to 0.67 and the Lactate came to 0.65. In data set [2] (f28, female rats, high dose), the Proline was found to be 1.03, the Serine stood at 1.06 and the Valine is on record as 0.98. In data set [2] (rat, in vivo), the “Isopalmitic acid (C16:0)” value is given as 1.41 *.

The values are drawn from patent publication US20150010928A1, “MEANS AND METHODS FOR ASSESSING AN ENDOCRINE DISEASE OR DISORDER” (priority 2012, published 2015).
